Test results taken from patent publication US9732131B2, “Identification and use of novopeptides for the treatment of cancer” (Calviri Inc., priority 2006, dated 2017).

Tests used:
[1] = test system: breast tumor driven by mutant rat Her2 gene; experiment: Prophylactic immunization in BALB-neuT transgenic breast cancer model; type: in vivo; settings: BALB-neuT mice, genetic prime/boost + KLH-peptide boost; vs non-treated and negative control (FIGS. 13a, 13b)
Description: From the candidate FS peptide sequences disclosed in Table 8 two candidates were selected for in vivo confirmation. The candidates chosen will be referred to herein as FS RBM (SEQ ID NO:232) and FS THAP2 (SEQ ID NO:238), these novopeptides having upstream in-frame portions that align with the mouse Rbm14 and Thap2 genes, respectively. […] The BALB-neuT mouse model is a transgenic mouse breast cancer model, in which all ten mammary glands of a female mouse will develop breast tumor around 20 weeks of age, driven by overexpression of a mutant rat Her2 gene.
FS RBM and FS THAP2 peptides were tested in vivo as candidate peptide components of a prophylactic anti-cancer vaccine. BALB-neuT mice were immunized at 4 to 6 weeks old (primary genetic immunization); 8 to 10 weeks old (boost genetic immunization) and 12 to 14 weeks old (boost peptide immunization). All genetic immunization had the same genetic adjuvant for each bullet for gene gun immunization: 250 ng mixed LTA-LTB/pCMVi and 2.5 μgCpG 2216. All mice received two shots at each ear by gene gun for each genetic immunization. At primary immunization, the vaccine group got two shots of bullets containing 100 ng (high dosage) or 20 ng (low dosage) mixed FS antigen plasmids per bullet; while negative group got two shots of 100 ng mixed empty plasmids for each shot. […]

[2] = test system: B16 F10 melanoma tumor cells; experiment: Prophylactic genetic immunization (gene gun LEE + pGM-CSF), B16 F10 melanoma challenge; type: in vivo, C57BL6 mice
4T1 breast tumor cells = experiment: Prophylactic genetic immunization, 4T1 breast tumor challenge; type: in vivo; settings: Balb/c mice, 3.2 ng FS 1-78 LEE + 1 μg pGM-CSF, boost, challenge 1×10^4 4T1 cells; vs pGM-CSF alone and FS 6-21 controls (FIG. 5)
Description: Immunization with a single FS-novopeptide identified based on one tumor type may be immunoprotective against a different tumor type in a different mouse strain. Disclosed herein is a procedure for such immunization. Immunization with novopeptides common to multiple types of tumors can result in cross-protection, obviating the requirement that a patient must develop a tumor before a personalized vaccine can be formulated, prepared and administered. Balb/c mice were immunized in the same manner as the C57BL6 mice in Example 2 above, with 3.2 ng of FS 1-78 LEE+1 μg of pGM-CSF, and boosted with the same gene vaccine after 2 weeks. One week after the boost, mice were challenged with 1×10^4 4 T1 breast tumor cells. Seventeen days after 4T1 challenge, tumors started to grow.

[3] = test system: serum antibodies of cancer patients; experiment: ELISA of cancer patient serum for reactivity with novopeptide; type: binding, human; settings: serum from 23 cancer patients, standard ELISA (FIG. 8)
Description: Disclosed herein are embodiments of methods for performing novopeptide immunological screens. For example, disclosed herein are embodiments of methods for immunologically screening for the existence of a B cell response to a particular novopeptide comprising assaying for the presence of antibodies reactive to that novopeptide in serum samples from individuals having a type of cancerous cells predicted to express the novopeptide, and for the absence, or presence below a prespecified titer, of such reactive antibodies in serum obtained from one or more individuals not having such cancer. The presence in sera of antibodies reactive to a given novopeptide may be detected and quantified by an ELISA assay in which the novopeptide is adsorbed onto a solid surface, serum is applied, and antibodies remaining bound to the novopeptides after washing are detected. […] However, in at least some individuals, a strong immune response develops late in the tumor progression process. Therefore, serum antibody reactivity to a candidate novopeptide, even if detected in the serum of only one or a few individuals having the cancer type in question, is strong evidence that the novopeptide is expressed in that cancer type.
Novopeptides in the FS database in association with particular tumor cell types were identified. […]

SW480 tumor cells = experiment: CTL assay (Cr release) with CTLs activated against novopeptide; type: cell-based, human; settings: MHC-matched SW480 cells pulsed with peptide vs unpulsed (FIG. 9)
Description: These CTL's may then be tested for reactivity against each of (1) cancerous cells, and (2) non-cancerous cells, each having an MHC or HLA type matching that of the MHC or HLA for which the CTL's are specific.
This is a standard Cr release assay that anyone skilled in the art would be able to do.

4T1 tumor cells = experiment: Prophylactic genetic immunization, BALB/C-4T1 mouse transplant breast tumor model; type: in vivo; settings: three peptide components given together by genetic immunization at 7 and 13 weeks; challenge 5,000 4T1 cells; vs empty vector (FIG. 15)
Procedure: Primary genetic immunization was administered with the three peptide components (10 mice) or with empty vector (negative controls, 4 mice) at 7 weeks old and 13 weeks old. Three weeks after the last immunization, all mice were challenged with 5,000 4T1 tumor cells. Tumor size was measured each day after palpable tumors appeared. […] Error bars show standard error.

B16 melanoma line = experiment: Therapeutic gene vaccine encoding SMC1A FS, B16 melanoma mouse tumor model; type: in vivo, mice; settings: B16 inoculated, gene vaccine one day later
Procedure: The FS was tested for therapeutic value as a vaccine in the mouse tumor model. The B16 melanoma line was inoculated into mice. One day later the mice were vaccinated with a gene vaccine encoding the FS.

Q: Which “inhibition of first tumor onset and tumor progression” value [1] does the source give for “FS RBM: mouse novopeptide whose upstream in-frame portion aligns with the mouse Rbm14 gene (GRVIECDVVKGSCQDGEAVHWKSAPGGHRAGDPLTLRAVREGAGM; Synthetic or recombinant sequence)” here?
A: significant prophylactic protection

Q: With “IPRMQPQASAnhcqllkvmva* (LLMCQCQLYQPWMCKEYYRLL; Synthetic or recombinant peptide) [FS 1-78, frameshift novopeptide from B16-F10, 396 bp deletion in a zinc finger protein gene]” as the substance, how does the tumor growth ([2]; C57BL6 mice, gene gun FS 1-78 LEE + 1 μg pGM-CSF, boost 2 weeks later, challenge 1×10^5 B16 F10 cells, vs empty LEE and no immunization (FIG. 4)) read?
A: tumor growth was markedly delayed

Q: What about the tumor volume ([2]; highest dose (3.2 ng) of FS 1-78 LEE (FIG. 4)) of the same substance?
A: tumor volume decreased after the already delayed rise

Q: And the 4T1 tumor growth (4T1 breast tumor cells)?
A: significantly delayed and reduced 4T1 tumor growth

Q: Which “inhibition of first tumor onset and tumor progression” value [1] does the source give for “FS THAP2: mouse novopeptide whose upstream in-frame portion aligns with the mouse Thap2 gene (FDFCTHIKSLVTFGLFLRGAGCSPSSFLL; Synthetic or recombinant sequence)” here?
A: significant prophylactic protection

Q: Which “antibody reactivity in sera of cancer patients” value [3] does the source give for “AVLLMCQLYQpwmckeyyrll* (AVLLMCQLYQPWMCKEYYRLL; Synthetic or recombinant sequence) [FS 6-21, frameshift novopeptide, 95 bp deletion]” here?
A: one cancer patient in 23

Q: What about the “CTL killing of tumor cells” value (SW480 tumor cells) of the same substance?
A: able to kill MHC-matched tumor cells pulsed with FS 6-21 peptide

Q: “SEQ ID NO: 311: second peptide of Table 9, frameshift predicted from mouse microsatellite locus (ICMSPPLLWATLQAPETTSAACKASYRPEGLYL; Synthetic or recombinant sequence)” was tested. Which “prophylactic inhibition of tumor progression (tumor size)” value (“prophylactic inhibition” below) (4T1 tumor cells) did it give?
A: effective in prophylactically inhibiting tumor progression

Q: How did the “prophylactic inhibition” value (4T1 tumor cells) turn out when “SEQ ID NO: 312: third peptide of Table 9, frameshift predicted from mouse microsatellite locus (YFSCDKRCIKHYAGNKSLLTFSGY; Synthetic or recombinant sequence)” was run?
A: effective in prophylactically inhibiting tumor progression

Q: For “SEQ ID NO: 310: first peptide of Table 9, frameshift predicted from mouse microsatellite locus (TLCMEVMLRWNTRELGYLYLQLCFLNTHFLHTSQEEKLLTLGRFLTWTSRCGSFVIRPL; Synthetic or recombinant sequence)”, which “prophylactic inhibition” value (4T1 tumor cells) is on record?
A: effective in prophylactically inhibiting tumor progression

Q: What does the source list for “NGSGCSGVYCHEEPQGEDSSV [FS SMC-1A, novopeptide from a frameshift of the SMC1A gene]”?
A: therapeutic effect on tumor size progression (B16 melanoma line; relative to control (FIG. 12a)): no therapeutic effect on tumor size progression; survival time (B16 melanoma line; relative to control (FIG. 12b)): did not show significant improvement in survival time
